From ChEMBL document CHEMBL3352057, “Novel fluorinated pyrrolo[1,2-a]pyrazine-2,6-dione derivatives: synthesis and anticonvulsant evaluation in animal models of epilepsy” (Bioorg Med Chem, 2014)
Activity calls are given as the source filed them. The rule behind the calls is not given here.

Key:
Mus musculus [1] = assay: Anticonvulsant activity in albino CF1 mouse assessed as protection against maximal electroshock-induced seizures at 100 mg/kg, ip measured after 0.25 hr; format: functional, organism-based; parameters: dose 100 mg/kg
Mus musculus [2] = assay: Anticonvulsant activity in albino CF1 mouse assessed as protection against maximal electroshock-induced seizures at 100 mg/kg, ip measured after 1 hr; format: functional, organism-based; parameters: dose 100 mg/kg
Mus musculus [3] = assay: Neurotoxicity in albino CF1 mouse at 100 mg/kg, ip measured after 0.25 hr; format: toxicity, organism-based; parameters: dose 100 mg/kg, route intraperitoneal; details: in vivo
Mus musculus [4] = assay: Neurotoxicity in albino CF1 mouse at 100 mg/kg, ip measured after 1 hr; format: toxicity, organism-based; parameters: dose 100 mg/kg, route intraperitoneal; details: in vivo
Mus musculus [5] = assay: Anticonvulsant activity in albino CF1 mouse assessed as protection against 32 mA current-induced seizures at 100 mg/kg, ip measured after 0.25 hr; format: functional, organism-based; parameters: dose 100 mg/kg
Mus musculus [6] = assay: Anticonvulsant activity in albino CF1 mouse assessed as protection against 32 mA current-induced seizures at 100 mg/kg, ip measured after 1 hr; format: functional, organism-based; parameters: dose 100 mg/kg
Mus musculus [7] = assay: Neurotoxicity in 32 mA current-induced seizure albino CF1 mouse model at 100 mg/kg, ip measured after 0.25 hr; format: toxicity, organism-based; parameters: dose 100 mg/kg, route intraperitoneal; details: in vivo
Mus musculus [8] = assay: Neurotoxicity in 32 mA current-induced seizure albino CF1 mouse model at 100 mg/kg, ip measured after 1 hr; format: toxicity, organism-based; parameters: dose 100 mg/kg, route intraperitoneal; details: in vivo
Mus musculus [9] = assay: Anticonvulsant activity in albino CF1 mouse assessed as protection against maximal electroshock-induced seizures at 100 mg/kg, ip measured after 0.5 hr; format: functional, organism-based; parameters: dose 100 mg/kg
Mus musculus [10] = assay: Anticonvulsant activity in albino CF1 mouse assessed as protection against maximal electroshock-induced seizures at 100 mg/kg, ip measured after 4 hrs; format: functional, organism-based; parameters: dose 100 mg/kg
Mus musculus [11] = assay: Neurotoxicity in albino CF1 mouse at 100 mg/kg, ip measured after 0.5 hr; format: toxicity, organism-based; parameters: dose 100 mg/kg, route intraperitoneal; details: in vivo
Mus musculus [12] = assay: Neurotoxicity in albino CF1 mouse at 100 mg/kg, ip measured after 4 hrs; format: toxicity, organism-based; parameters: dose 100 mg/kg, route intraperitoneal; details: in vivo
Mus musculus [13] = assay: Anticonvulsant activity in albino CF1 mouse assessed as protection against 32 mA current-induced seizures at 100 mg/kg, ip measured after 0.5 hr; format: functional, organism-based; parameters: dose 100 mg/kg
Mus musculus [14] = assay: Anticonvulsant activity in albino CF1 mouse assessed as protection against 32 mA current-induced seizures at 100 mg/kg, ip measured after 2 hrs; format: functional, organism-based; parameters: dose 100 mg/kg
Mus musculus [15] = assay: Anticonvulsant activity in albino CF1 mouse assessed as protection against 32 mA current-induced seizures at 100 mg/kg, ip measured after 4 hrs; format: functional, organism-based; parameters: dose 100 mg/kg
Mus musculus [16] = assay: Neurotoxicity in 32 mA current-induced seizure albino CF1 mouse model at 100 mg/kg, ip measured after 0.5 hr; format: toxicity, organism-based; parameters: dose 100 mg/kg, route intraperitoneal; details: in vivo
Mus musculus [17] = assay: Neurotoxicity in 32 mA current-induced seizure albino CF1 mouse model at 100 mg/kg, ip measured after 2 hrs; format: toxicity, organism-based; parameters: dose 100 mg/kg, route intraperitoneal; details: in vivo
Mus musculus [18] = assay: Neurotoxicity in 32 mA current-induced seizure albino CF1 mouse model at 100 mg/kg, ip measured after 4 hrs; format: toxicity, organism-based; parameters: dose 100 mg/kg, route intraperitoneal; details: in vivo
Mus musculus [19] = assay: Anticonvulsant activity in albino CF1 mouse assessed as protection against subcutaneous metrazol-induced seizures at 100 mg/kg, ip measured after 0.25 hr; format: functional, organism-based; parameters: dose 100 mg/kg
Mus musculus [20] = assay: Anticonvulsant activity in albino CF1 mouse assessed as protection against subcutaneous metrazol-induced seizures at 100 mg/kg, ip measured after 0.5 hr; format: functional, organism-based; parameters: dose 100 mg/kg
Mus musculus [21] = assay: Anticonvulsant activity in albino CF1 mouse assessed as protection against subcutaneous metrazol-induced seizures at 100 mg/kg, ip measured after 1 hr; format: functional, organism-based; parameters: dose 100 mg/kg
Mus musculus [22] = assay: Anticonvulsant activity in albino CF1 mouse assessed as protection against subcutaneous metrazol-induced seizures at 100 mg/kg, ip measured after 4 hrs; format: functional, organism-based; parameters: dose 100 mg/kg
Rattus norvegicus [23] = assay: Anticonvulsant activity in Sprague-Dawley rat assessed as protection against maximal electroshock-induced seizures at 30 mg/kg, ip measured after 0.25 hr; format: functional, organism-based; parameters: dose 30 mg/kg
Rattus norvegicus [24] = assay: Anticonvulsant activity in Sprague-Dawley rat assessed as protection against maximal electroshock-induced seizures at 30 mg/kg, ip measured after 0.5 hr; format: functional, organism-based; parameters: dose 30 mg/kg
Rattus norvegicus [25] = assay: Anticonvulsant activity in Sprague-Dawley rat assessed as protection against maximal electroshock-induced seizures at 30 mg/kg, ip measured after 1 hr; format: functional, organism-based; parameters: dose 30 mg/kg
Rattus norvegicus [26] = assay: Anticonvulsant activity in Sprague-Dawley rat assessed as protection against maximal electroshock-induced seizures at 30 mg/kg, ip measured after 2 hrs; format: functional, organism-based; parameters: dose 30 mg/kg
Rattus norvegicus [27] = assay: Anticonvulsant activity in Sprague-Dawley rat assessed as protection against maximal electroshock-induced seizures at 30 mg/kg, ip measured after 4 hrs; format: functional, organism-based; parameters: dose 30 mg/kg
Rattus norvegicus [28] = assay: Neurotoxicity in MES Sprague-Dawley rat model at 30 mg/kg, ip measured after 0.25 hr; format: toxicity, organism-based; parameters: dose 30 mg/kg, route intraperitoneal; details: in vivo
Rattus norvegicus [29] = assay: Neurotoxicity in MES Sprague-Dawley rat model at 30 mg/kg, ip measured after 0.5 hr; format: toxicity, organism-based; parameters: dose 30 mg/kg, route intraperitoneal; details: in vivo
Rattus norvegicus [30] = assay: Neurotoxicity in MES Sprague-Dawley rat model at 30 mg/kg, ip measured after 1 hr; format: toxicity, organism-based; parameters: dose 30 mg/kg, route intraperitoneal; details: in vivo
Rattus norvegicus [31] = assay: Neurotoxicity in MES Sprague-Dawley rat model at 30 mg/kg, ip measured after 2 hrs; format: toxicity, organism-based; parameters: dose 30 mg/kg, route intraperitoneal; details: in vivo
Rattus norvegicus [32] = assay: Neurotoxicity in MES Sprague-Dawley rat model at 30 mg/kg, ip measured after 4 hrs; format: toxicity, organism-based; parameters: dose 30 mg/kg, route intraperitoneal; details: in vivo

Compound | Activity (Mus musculus [1]) | Activity (Mus musculus [2]) | Activity (Mus musculus [3]) | Activity (Mus musculus [4]) | Activity (Mus musculus [5]) | Activity (Mus musculus [6]) | Activity (Mus musculus [7]) | Activity (Mus musculus [8]) | Activity (Mus musculus [9]) | Activity (Mus musculus [10]) | Activity (Mus musculus [11]) | Activity (Mus musculus [12]) | Activity (Mus musculus [13]) | Activity (Mus musculus [14]) | Activity (Mus musculus [15]) | Activity (Mus musculus [16]) | Activity (Mus musculus [17]) | Activity (Mus musculus [18]) | Activity (Mus musculus [19]) | Activity (Mus musculus [21]) | also measured
O=C1NC(=O)[C@@H](c2cccc(C(F)(F)F)c2)N2CCCC[C@@H]12 | inactive | inactive | Non-toxic | Non-toxic | inactive | inactive | Non-toxic | Non-toxic | – | – | – | – | – | – | – | – | – | – | – | – | –
Cl.O=C1NC(=O)[C@@H](c2cccc(C(F)(F)F)c2)N2CCC[C@H]12 | Active | inactive | Non-toxic | Non-toxic | Active | Active | Non-toxic | Non-toxic | inactive | inactive | Non-toxic | Non-toxic | Active | inactive | inactive | Non-toxic | Non-toxic | Non-toxic | – | – | –
O=C1NC(=O)[C@@H]2CCCN2[C@H]1c1c(F)cccc1F (mixture of isomers) | Active | inactive | Non-toxic | Non-toxic | Active | inactive | Non-toxic | Non-toxic | inactive | inactive | Non-toxic | Non-toxic | inactive | inactive | inactive | Non-toxic | Non-toxic | Non-toxic | inactive | inactive | Activity (Mus musculus [20]): inactive; Activity (Mus musculus [22]): inactive
O=C1NC(=O)[C@@H]2CCCN2[C@H]1c1cc(F)cc(F)c1 | Active | inactive | Non-toxic | Non-toxic | Active | inactive | Non-toxic | Non-toxic | inactive | inactive | Non-toxic | Non-toxic | Active | inactive | inactive | Non-toxic | Non-toxic | Non-toxic | Active | inactive | Activity (Mus musculus [20]): Active; Activity (Mus musculus [22]): inactive
O=C1NC(=O)[C@@H]2CCCN2[C@H]1c1ccccc1C(F)(F)F | inactive | inactive | Non-toxic | Non-toxic | inactive | inactive | Non-toxic | Non-toxic | inactive | inactive | Non-toxic | Non-toxic | inactive | inactive | inactive | Non-toxic | Non-toxic | Non-toxic | inactive | inactive | Activity (Mus musculus [20]): inactive; Activity (Mus musculus [22]): inactive
O=C1NC(=O)[C@H](c2cccc(C(F)(F)F)c2)N2CCCC[C@H]12 | inactive | inactive | Non-toxic | Non-toxic | inactive | inactive | Non-toxic | Non-toxic | – | – | – | – | – | – | – | – | – | – | inactive | inactive | –
O=C1NC(=O)[C@@H]2CCCN2[C@H]1c1ccc(C(F)(F)F)cc1 | Active | Active | Non-toxic | Non-toxic | inactive | inactive | Non-toxic | Non-toxic | inactive | inactive | Non-toxic | Non-toxic | Active | inactive | inactive | Non-toxic | Non-toxic | Non-toxic | Active | inactive | Activity (Mus musculus [20]): Active; Activity (Mus musculus [22]): inactive; Activity (Rattus norvegicus [23]): inactive; Activity (Rattus norvegicus [24]): inactive; Activity (Rattus norvegicus [25]): inactive; Activity (Rattus norvegicus [26]): inactive; Activity (Rattus norvegicus [27]): inactive; Activity (Rattus norvegicus [28]): Non-toxic; Activity (Rattus norvegicus [29]): Non-toxic; Activity (Rattus norvegicus [30]): Non-toxic; Activity (Rattus norvegicus [31]): Non-toxic; Activity (Rattus norvegicus [32]): Non-toxic
O=C1NC(=O)[C@@H]2CCCN2[C@H]1c1c(F)cccc1Cl (mixture of isomers) | inactive | inactive | Non-toxic | Non-toxic | inactive | inactive | Non-toxic | Non-toxic | inactive | inactive | Non-toxic | Non-toxic | inactive | inactive | inactive | Non-toxic | Non-toxic | Non-toxic | inactive | inactive | Activity (Mus musculus [20]): inactive; Activity (Mus musculus [22]): inactive
O=C1NC(=O)[C@H](c2cccc(C(F)(F)F)c2)N2CCC[C@H]12 | inactive | inactive | Non-toxic | Non-toxic | inactive | inactive | Non-toxic | Non-toxic | inactive | inactive | Non-toxic | Non-toxic | inactive | inactive | inactive | Non-toxic | Non-toxic | Non-toxic | inactive | inactive | Activity (Mus musculus [20]): inactive; Activity (Mus musculus [22]): inactive
